One assay deals with Pferdethrombin. In words: Thrombin time (clotting of human citrate plasma with thrombin reagent, ball coagulometer). In kind it is biochemical, Pferd. The settings on record: thrombin time as difference to control (control ca. 24 Sek.), test stopped at 5 Min.; for TT2.5: 2.5 µM in final volume; for TT25: 25 µM in final volume; for TT250: 250 µM in final volume. How it is done: Ein in der klinischen Gerinnungsdiagnostik gebräuchlicher Test ist die Thrombinzeit. Dieser Parameter erfaßt die Thrombinwirkung auf Fibrinogen und die Gerinnselbildung. Inhibitoren von Thrombin bewirken eine Verlängerung der Thrombinzeit.
Zur Plasmagewinnung wurden 9 Teile frisches Blut gesunder Spender mit einem Teil Natriumcitratlösung (0.11 Mol/l) gemischt und bei ca. 3000 U/min 10 Min. bei Raumtemperatur zentrifugiert. Das Plasma wurde abpipettiert und kann bei Raumtemperatur ca. 8 h aufbewahrt werden.
200 µl Citratplasma wurden in einem Kugelkoagulometer (KC 10 der Firma Amelung) 2 Min. bei 37 °C inkubiert, Zu 190 µl vortemperiertem Thrombin-Reagenz (Boehringer Mannheim GmbH; enthält ca. 3 U/ml Pferdethrombin und 0.0125 M Ca^++) gab man 10 µl Dimethylsulfoxid (DMSO) oder eine Lösung der Wirksubstanz in DMSO. Mit Zugabe dieser 200 µl Lösung zum Plasma wurde eine Stoppuhr gestartet und der Zeitpunkt bis zum Eintritt der Gerinnung bestimmt. Die Thrombinzeit betrug bei den Kontrollmessungen ca. 24 Sek. und wurde durch die Wirksubstanzen deutlich verlängert. War die Thrombinzeit in Gegenwart einer Beispielverbindung länger als 5 Min.. wurde der Versuch abgebrochen.
In der folgenden Tabelle sind die gemessenen Thrombinzeiten in Sekunden als Differenz zur Kontrolle angegeben. Die Konzentrationen der Wirksubstanzen betrugen im Endvolumen 250 µM (TT250), 25 µM (TT25) und 2.5 µM (TT2.5).

The next assay has as its target T1, humanem α-Thrombin (Homo sapiens, UniProt P00734).
T1 construct: humanem α-Thrombin (Sigma, spezifische Aktivität = 2150 NIH-units/mg); purchased Sigma
Put plainly: Thrombin inhibition, kinetic measurement with chromogenic substrate S-2238. In kind it is biochemical. To be noted: 0,1 M phosphate buffer, pH = 7.5, 25 °C, substrate H-(D)-Phe-Pro-Arg-pNA (S-2238). How it is done:
Die kinetischen Messungen wurden in 0,1 M Phosphatpuffer, der 0.2 M Kochsalz und 0.5 % Polyethylenglycol 6000 enthielt. bei einem pH = 7.5 und 25 °C mit dem Substrat H-(D)-Phe-Pro-Arg-pNA (S-2238 Kabi) und humanem α-Thrombin (Sigma, spezifische Aktivität = 2150 NIH-units/mg) in Polystyrol-Halbmikroküvetten in einem Gesamtvolumen von 1 ml durchgeführt.
In einem Vorversuch wurde mit jeder Wirksubstanz bestimmt, ob sie Thrombin schnell oder langsam inhibiert. Dazu wurde die Reaktion einmal durch Zugabe von 0.03 NIH-units Thrombin zu einer 100 µM-Lösung des Substrats und des Wirkstoffs gestartet. In einem zweiten Versuch wurde Substrat zu einer 5 Min. inkubierten Lösung des Thrombins und des Wirkstoffs gegeben. Die Zunahme der Konzentration von p-Nitroanilin mit der Zeit wurde spektroskopisch (UV-VIS-Spektrophotometer Lambda-2 der Firma Perkin-Elmer) bei 405 nm 12 Min. verfolgt. Da die bei beiden Versuchen erhaltenen Messkurven linear und parallel waren, handelt es sich bei den Wirkstoffen der folgenden Tabelle um schnelle Thrombin-Inhibitoren. Die Inhibitionskonstanten Ki wurden dann wie folgt bestimmt. Das Substrat wurde in den Konzentrationen 100 µM, 50 µM. 30 µM, 20 µM eingesetzt und bei jeder Substratkonzentration eine Messung ohne Inhibitor und drei Messungen in Gegenwart unterschiedlicher Konzentrationen der in der folgenden Tabelle aufgeführten Inhibitoren durchgeführt. Die Reaktionen wurden durch Zugabe von Thrombin gestartet. Die Zunahme der Extinktion bei 405 nm durch das entstehende p-Nitroanilin über einen Zeitraum von 12 Min. verfolgt. Im Abstand von 20 Sek. wurden Meßpunkte (Zeit vs. Extinktion) auf einen PC übertragen. Aus den Daten wurden die Geschwindigkeiten Vo (Extinktionsänderung pro Sek.: Messungen ohne Inhibitor) und Vi (Messungen mit Inhibitor) durch lineare Regression bestimmt. Benutzt wurde nur der Teil jeder Messung. bei dem sich die Substratkonzentration um weniger als 15 % vermindert hatte. Aus einer Meßreihe (konstante Inhibitorkonzentration, variable Substratkonzentrationen) bestimmte man Km' und Vmax durch nichtlinearen Fit auf die Gleichung V =(Vmax ∗ [S])/([S] + Km ') [formula]
Aus den gesamten Meßreihen berechnete man schließlich Ki durch nichtlinearen Fit auf die Gleichung V =(Vmax ∗ [S])/(Km ∗ (1 + […] ) + [S]) [formula] Die Michaeliskonstante Km betrug in allen Messungen 3.8 ± 2 µM. Die Inhibitionskonstanten Ki der Wirksubstanzen sind in der folgenden Tabelle in der Einheit µM angegeben.

The values below come from patent EP0687253B1, “4-AMINOPYRIDINES, PROCESS FOR PREPARING THE SAME AND MEDICAMENTS CONTAINING THE SAME” (BOEHRINGER MANNHEIM GMBH, priority 1993, dated 1994).

The structures appear in SMILES notation.

With `O=S(=O)(Nc1cccc(OCCNc2ccncc2)c1)c1cccc2ccccc12` [Beispiel 2, N-{3-[2-(Pyridin-4-ylamino)-ethoxy]-phenyl}-1-naphthalin-sulfonamid], in the assay with Pferdethrombin, the TT2.5 is listed as 6 Sekunden, the TT25 is 40 Sekunden and the TT250 was 150 Sekunden. The same molecule had an inhibition constant (Ki) on humanem α-Thrombin of 300 nM.
For the molecule `O=S(=O)(Nc1cccc(OCCNc2ccncc2)c1)C1CCCCC1` [Beispiel 8, N-{3-[2-(Pyridin-4-ylamino)-ethoxy]-phenyl}-cyclohexan-sulfonamid], in the assay with Pferdethrombin, the TT2.5 turned out to be 13 Sekunden, the TT25 is 58 Sekunden and the TT250 is on record as 288 Sekunden. The Ki at humanem α-Thrombin worked out at 1000 nM.
In the assay on Pferdethrombin, `CC(CNc1ccncc1)Oc1cccc(NS(=O)(=O)c2ccccc2)c1` (centres unmarked) [Beispiel 10, N-{3-[1-Methyl-2-(pyridin-4-ylamino)-ethoxy]-phenyl}-benzolsulfonamid] registered a TT2.5 of 7 Sekunden, a TT25 of 43 Sekunden and a TT250 of 157 Sekunden. At humanem α-Thrombin, the Ki was found to be 3000 nM.
In the assay with Pferdethrombin, `O=S(=O)(c1ccccc1)N(Cc1ccccc1)c1cccc(OCCNc2ccncc2)c1` [Beispiel 15, N-Benzyl-N-{3-[2-(pyridin-4-ylamino)-ethoxy]-phenyl}-benzolsulfonamid] yielded a TT2.5 of 15 Sekunden, a TT25 of 144 Sekunden and a TT250 of 270 Sekunden. The affinity on humanem α-Thrombin corresponds to a Ki of 130 nM.
For `COc1ccc(OCCNc2ccncc2)cc1NS(=O)(=O)c1ccccc1` [Beispiel 59, N-{2-Methoxy-5-[2-(pyridin-4-ylamino)-ethoxy]-phenyl}-benzolsulfonamid] the same measures were 0 Sekunden, 8 Sekunden, 53 Sekunden and 6000 nM.
For `Cc1ccc(OCCNc2ccncc2)cc1NS(=O)(=O)c1ccccc1` [Beispiel 60, N-{2-Methyl-5-[2-(pyridin-4-ylamino)-ethoxy]-phenyl}-benzolsulfonamid], in that order: 13 Sekunden, 62 Sekunden, 137 Sekunden and 600 nM.
For `Cc1cc(OCCN(C)c2ccncc2)cc(OS(=O)(=O)c2ccccc2Cl)c1` [Beispiel 72, 2-Chlorbenzolsulfonsäure-5-methyl-3-[2-(N-methyl-pyridin-4-ylamino)-ethoxy]-phenylester], in that order: 159 Sekunden, 300 Sekunden, 300 Sekunden and 24 nM.
In the assay on Pferdethrombin, `O=S(=O)(Nc1cc(NCCNc2ccncc2)cc(C(F)(F)F)c1)c1ccccc1` [Beispiel 79, N-{3-[2-(Pyridin-4-ylamino)-ethylamino]-5-trifluormethyl-phenyl}-benzolsulfonamid] yielded a TT2.5 of 0 Sekunden, a TT25 of 8 Sekunden and a TT250 of 30 Sekunden. On humanem α-Thrombin, affinity was put at a Ki of 5000 nM.
On to `COc1cc(OCCNc2ccncc2)cc(S(=O)(=O)N(C)c2ccccc2)c1` [Beispiel 80, 3-Methoxy-N-methyl-N-phenyl-5-[2-(pyridin-4-ylamino)-ethoxy]-benzolsulfonamid], for which, in the assay with Pferdethrombin, the TT2.5 was 44 Sekunden, the TT25 turned out to be 213 Sekunden and the TT250 is 300 Sekunden. Moreover, affinity on humanem α-Thrombin was put at a Ki of 150 nM.
With `COc1cc(OCCNc2ccncc2)cc(N(C)S(=O)(=O)c2ccccc2)c1` [Beispiel 83, N-Methyl-N-{3-[2-(pyridin-4-ylamino)-ethoxy]-5-methoxy-phenyl}-benzolsulfonamid], in the assay on Pferdethrombin, the TT2.5 is on record as 48 Sekunden, the TT25 came to 192 Sekunden and the TT250 is 300 Sekunden. The molecule further yielded an inhibition constant (Ki) at humanem α-Thrombin of 100 nM.
For `O=S(=O)(c1cc(Cl)cc(NCCNc2ccncc2)c1)N(Cc1ccccc1)c1ccccc1` [Beispiel 86, 3-Chlor-N-benzyl-N-phenyl-5-[2-(pyridin-4-ylamino)-ethylamino]-benzolsulfonamid] the same measures were 11 Sekunden, 167 Sekunden, 300 Sekunden and 40 nM.
For `O=S(=O)(Nc1cc(Br)cc(NCCNc2ccncc2)c1)c1ccccc1` [Beispiel 89, N-{3-[2-(Pyridin-4-ylamino)-ethylamino]-5-brom-phenyl}-benzolsulfonamid], in that order: 6 Sekunden, 38 Sekunden, 132 Sekunden and 1000 nM.
For `CCc1cc(OCCNc2ccncc2)cc(OS(=O)(=O)c2ccccc2)c1` [Beispiel 90, Benzolsulfonsäure-3-ethyl-5-[2-(pyridin-4-ylamino)-ethoxy]-phenyl-ester] the same measures were 125 Sekunden, 300 Sekunden, 300 Sekunden and 24 nM.
As to `Cc1cc(OCCNc2ccncc2)cc(N(CCN)S(=O)(=O)c2ccccc2)c1` [Beispiel 100, N-(2-Aminoethyl)-N-{3-[2-(pyridin-4-ylamino)-ethoxy]-5-methyl-phenyl}-benzolsulfonamid], in the assay with Pferdethrombin, the TT2.5 is listed as 186 Sekunden, the TT25 was 300 Sekunden and the TT250 amounted to 300 Sekunden. At humanem α-Thrombin, this molecule gave a Ki of 83 nM.
In the assay on Pferdethrombin, `Cc1cc(OCCNc2ccncc2)cc(N(CCCCCC(=O)O)S(=O)(=O)c2ccccc2)c1` [Beispiel 108, 6-(Benzolsulfonyl-{3-methyl-5-[2-(pyridin-4-yl-amino)-ethoxy]-phenyl}-amino)-hexansäure] yielded a TT2.5 of 62 Sekunden, a TT25 of 300 Sekunden and a TT250 of 300 Sekunden. On humanem α-Thrombin, this molecule showed a Ki of 55 nM.
Consider `Cc1cc(OCCNc2ccncc2)cc(N(C)S(=O)(=O)c2ccccc2OCC(=O)O)c1` [Beispiel 124], for which, in the assay on Pferdethrombin, the TT2.5 is reported as 104 Sekunden, the TT25 amounted to 300 Sekunden and the TT250 worked out at 300 Sekunden. At humanem α-Thrombin, this molecule yielded a Ki of 250 nM.
In the assay with Pferdethrombin, `CCOC(=O)N(c1cc(C)cc(OCCNc2ccncc2)c1)S(=O)(=O)c1ccccc1OC` [Beispiel 125, N-Ethoxycarbonyl-N-{3-methyl-5-[2-(pyridin-4-ylamino)-ethoxy]-phenyl}-2-methoxybenzolsulfonamid] yielded a TT2.5 of 73 Sekunden, a TT25 of 273 Sekunden and a TT250 of 300 Sekunden. The same molecule gave a Ki on humanem α-Thrombin of 150 nM.

For orientation: Ki means the dissociation constant of the complex between target and ligand, obtained from inhibition or displacement.
